Experimental data from ChEMBL document CHEMBL1938376, “In vitro and in silico studies of polycondensed diazine systems as anti-parasitic agents” (Bioorg Med Chem Lett, 2012).

Key:
[1] = Solubility of the compound; type: physicochemical
MRC5 = experiment: Cytotoxicity against human MRC5 cells after 4 to 7 days using alamar blue/resazurin staining by fluorescence assay; type: cell-based
Plasmodium falciparum = experiment: Antimalarial activity against chloroquine-sensitive Plasmodium falciparum GHA infected in human erythrocytes assessed as parasite growth after 72 hrs by malstat reagent based spectrophotometric method; type: functional, organism-based
[2] = Solubility of the compound in 100% DMSO; type: physicochemical
Trypanosoma cruzi = experiment: Antiparasitic activity against nifurtimox-sensitive amastigotes of Trypanosoma cruzi Tulahuen expressing LacZ gene infected in human MRC5 cells using chlorophenolred b-Dgalacto-pyranoside as substrate by colorimetric method; type: functional, organism-based
Trypanosoma brucei = experiment: Antiparasitic activity against trypomastigote form of drug-sensitive Trypanosoma brucei assessed as inhibition of parasite growth after 4 days using alamar blue/resazurin staining by fluorimetric method; type: functional, organism-based
Leishmania infantum = experiment: Antiparasitic activity against amastigotes of Leishmania infantum infected in mouse peritoneal macrophages after 5 days using giemsa staining by microscopic analysis; type: functional, organism-based
[3] = Solubility of the compound in 13% DMSO/water; type: physicochemical; conditions: buffer
[4] = Selectivity index, ratio of IC50 for human MRC5 cells to IC50 for drug-sensitive trypomastigotes of Trypanosoma brucei; type: toxicity, cell-based; conditions: read-out: Ratio IC50
[5] = Selectivity index, ratio of IC50 for human MRC5 cells to IC50 for nifurtimox-sensitive amastigotes of Trypanosoma cruzi; type: toxicity, cell-based; conditions: read-out: Ratio IC50
[6] = Selectivity index, ratio of IC50 for human MRC5 cells to IC50 for chloroquine-sensitive Plasmodium falciparum GHA; type: toxicity, cell-based; conditions: read-out: Ratio IC50
[7] = Plasmodium falciparum, GHA, 72 h
[8] = Trypanosoma cruzi, Tulahuen, MRC5

CC(=O)C1=NN(c2ccccc2)C2C3N(c4ccccc4)N=C(C(C)=O)N3c3[nH]c(-c4ccccc4)cc3N12 (configuration not stated)
solubility [1]: soluble | IC50 (MRC5; Homo sapiens, MRC5): 64 µM | IC50 (Plasmodium falciparum; [7]): 2.15 µM | solubility [2]: Insoluble | IC50 (Trypanosoma cruzi; [8]): 64 µM | IC50 (Trypanosoma brucei; Trypanosoma brucei, 96 h): 64 µM | IC50 (Leishmania infantum; Leishmania infantum, 120 h): 32.5 µM

COC(=O)C1=NN(c2ccccc2)C2C3N(c4ccccc4)N=C(C(=O)OC)N3c3[nH]c(-c4ccccc4)cc3N12 (configuration not stated)
IC50 (MRC5; Homo sapiens, MRC5): 64 µM | IC50 (Plasmodium falciparum; [7]): 6.87 µM | IC50 (Trypanosoma cruzi; [8]): 64 µM | solubility [3]: soluble | IC50 (Trypanosoma brucei; Trypanosoma brucei, 96 h): 64 µM | IC50 (Leishmania infantum; Leishmania infantum, 120 h): 32.5 µM

COC(=O)C1=NN(c2ccccc2)C2=CN=C3NC(c4ccccc4)=CC3N21 (configuration not stated)
IC50 (MRC5; Homo sapiens, MRC5): 64 µM | IC50 (Plasmodium falciparum; [7]): 64 µM | solubility [2]: Insoluble | IC50 (Trypanosoma cruzi; [8]): 64 µM | IC50 (Trypanosoma brucei; Trypanosoma brucei, 96 h): 64 µM | IC50 (Leishmania infantum; Leishmania infantum, 120 h): 64 µM

CCOC(=O)C1=NN(c2ccc(Cl)cc2)C2C3N(c4ccc(Cl)cc4)N=C(C(=O)OCC)N3c3ccccc3N12 (stereo in doubt; 4g)
selectivity ratio [4]: 2 | solubility [1]: soluble | selectivity ratio [5]: 6 | IC50 (MRC5; mrc5): 12.4 µM | IC50 (Plasmodium falciparum): 18.6 µM | IC50 (Trypanosoma cruzi; mrc5): 8.75 µM | IC50 (Trypanosoma brucei): 2.01 µM | IC50 (Leishmania infantum): 32 µM

C[C@]12[C@@H]3N(c4ccccc4)N=C(C(=O)c4ccccc4)N3c3ccccc3N1C(C(=O)c1ccccc1)=NN2c1ccccc1 (racemic)
selectivity ratio [4]: 2 | IC50 (MRC5; Homo sapiens, MRC5): 64 µM | IC50 (Plasmodium falciparum; [7]): 8.23 µM | IC50 (Trypanosoma cruzi; [8]): 10.1 µM | solubility [3]: soluble | IC50 (Trypanosoma brucei; Trypanosoma brucei, 96 h): 2.06 µM | IC50 (Leishmania infantum; Leishmania infantum, 120 h): 8 µM

CCOC(=O)C1=NN(c2ccc(Cl)cc2)C2C3N(c4ccc(Cl)cc4)N=C(C(=O)OCC)N3c3[nH]c(-c4ccccc4)cc3N12 (configuration not stated)
IC50 (MRC5; Homo sapiens, MRC5): 64 µM | IC50 (Plasmodium falciparum; [7]): 26.9 µM | IC50 (Trypanosoma cruzi; [8]): 40.3 µM | solubility [3]: soluble | IC50 (Trypanosoma brucei; Trypanosoma brucei, 96 h): 32.2 µM | IC50 (Leishmania infantum; Leishmania infantum, 120 h): 64 µM

CC(=O)C1=NN(c2ccccc2)C2C3N(c4ccccc4)N=C(C(C)=O)N3c3ccccc3N12 (stereo in doubt; 4b)
IC50 (MRC5; mrc5): 29.6 µM | IC50 (Plasmodium falciparum): 8.48 µM | IC50 (Trypanosoma cruzi; mrc5): 12.6 µM | IC50 (Trypanosoma brucei): 8.06 µM | IC50 (Leishmania infantum): 32.5 µM

O=C(C1=NN(c2ccccc2)C2C3N(c4ccccc4)N=C(C(=O)c4ccccc4)N3c3ccccc3N12)c1ccccc1 (configuration not stated)
selectivity ratio [4]: 2 | solubility [1]: soluble | IC50 (MRC5; Homo sapiens, MRC5): 17.6 µM | IC50 (Plasmodium falciparum; [7]): 27.7 µM | IC50 (Trypanosoma cruzi; [8]): 64 µM | solubility [3]: soluble | IC50 (Trypanosoma brucei; Trypanosoma brucei, 96 h): 2.03 µM | IC50 (Leishmania infantum; Leishmania infantum, 120 h): 32.5 µM

COC(=O)C1=NN(c2ccccc2)C2C3N(c4ccccc4)N=C(C(=O)OC)N3c3ccccc3N12 (stereo in doubt; 4e)
IC50 (MRC5; mrc5): 33.1 µM | IC50 (Plasmodium falciparum): 25.6 µM | IC50 (Trypanosoma cruzi; mrc5): 42.5 µM | IC50 (Trypanosoma brucei): 34.6 µM

CC(=O)C1=NN(c2ccccc2)C2C3N(c4ccccc4)N=C(C(C)=O)N3c3ccccc3N12 (stereo in doubt; 4a)
IC50 (MRC5; mrc5): 64 µM | IC50 (Plasmodium falciparum): 64 µM | IC50 (Trypanosoma cruzi; mrc5): 38.1 µM | solubility [3]: soluble | IC50 (Trypanosoma brucei): 64 µM | IC50 (Leishmania infantum; Leishmania infantum, 120 h): 32 µM

COC(=O)C1=NN(c2ccccc2)[C@@H]2N1c1ccccc1N1C(C(=O)OC)=NN(c3ccccc3)[C@@]21C (racemic)
selectivity ratio [5]: 6 | IC50 (MRC5; Homo sapiens, MRC5): 64 µM | IC50 (Plasmodium falciparum; [7]): 11.6 µM | IC50 (Trypanosoma cruzi; [8]): 4.29 µM | solubility [3]: soluble | IC50 (Trypanosoma brucei; Trypanosoma brucei, 96 h): 64 µM | IC50 (Leishmania infantum; Leishmania infantum, 120 h): 64 µM

COC(=O)C1=NN(c2ccccc2)C2=CNc3c(C)cccc3N21
IC50 (MRC5; Homo sapiens, MRC5): 64 µM | IC50 (Plasmodium falciparum; [7]): 64 µM | IC50 (Trypanosoma cruzi; [8]): 64 µM | solubility [3]: soluble | IC50 (Trypanosoma brucei; Trypanosoma brucei, 96 h): 64 µM | IC50 (Leishmania infantum; Leishmania infantum, 120 h): 64 µM

C1=C(c2ccccc2)NC2=NC=C3N(c4ccccc4)N=C(c4ccccc4)N3C12 (configuration not stated)
IC50 (MRC5; Homo sapiens, MRC5): 64 µM | IC50 (Plasmodium falciparum; [7]): 64 µM | solubility [2]: Insoluble | IC50 (Trypanosoma cruzi; [8]): 64 µM | IC50 (Trypanosoma brucei; Trypanosoma brucei, 96 h): 64 µM | IC50 (Leishmania infantum; Leishmania infantum, 120 h): 64 µM

COC(=O)C1=NN(c2ccc(Cl)cc2)C2C3N(c4ccc(Cl)cc4)N=C(C(=O)OC)N3c3c(C)cccc3N12 (racemic)
IC50 (MRC5; Homo sapiens, MRC5): 64 µM | IC50 (Plasmodium falciparum; [7]): 42.6 µM | IC50 (Trypanosoma cruzi; [8]): 64 µM | solubility [3]: soluble | IC50 (Trypanosoma brucei; Trypanosoma brucei, 96 h): 64 µM | IC50 (Leishmania infantum; Leishmania infantum, 120 h): 64 µM

COC(=O)C1=NN(c2ccc(Cl)cc2)C2(C1)Nc1ccccc1N1C(C(=O)OC)=NN(c3ccc(Cl)cc3)C12 (racemic)
IC50 (MRC5; Homo sapiens, MRC5): 64 µM | IC50 (Plasmodium falciparum; [7]): 64 µM | IC50 (Trypanosoma cruzi; [8]): 64 µM | solubility [3]: soluble | IC50 (Trypanosoma brucei; Trypanosoma brucei, 96 h): 64 µM | IC50 (Leishmania infantum; Leishmania infantum, 120 h): 64 µM

CC(=O)C1=NN(c2ccccc2)[C@@H]2N1c1ccccc1N1C(C(C)=O)=NN(c3ccccc3)[C@@]21C (racemic)
IC50 (MRC5; Homo sapiens, MRC5): 64 µM | IC50 (Plasmodium falciparum; [7]): 29.2 µM | IC50 (Trypanosoma cruzi; [8]): 33.7 µM | solubility [3]: soluble | IC50 (Trypanosoma brucei; Trypanosoma brucei, 96 h): 32.2 µM | IC50 (Leishmania infantum; Leishmania infantum, 120 h): 24.1 µM

COC(=O)C1=NN(c2ccccc2)C2C3N(c4ccccc4)N=C(C(=O)OC)N3c3ccccc3N12 (stereo in doubt; 4d)
selectivity ratio [5]: 6 | IC50 (MRC5; Homo sapiens, MRC5): 64 µM | IC50 (Plasmodium falciparum): 12.3 µM | IC50 (Trypanosoma cruzi; [8]): 64 µM | solubility [3]: soluble | IC50 (Trypanosoma brucei; Trypanosoma brucei, 96 h): 64 µM | IC50 (Leishmania infantum; Leishmania infantum, 120 h): 64 µM

CCOC(=O)C1=NN(c2ccc(Cl)cc2)C2C3N(c4ccc(Cl)cc4)N=C(C(=O)OCC)N3c3ccccc3N12 (stereo in doubt; 4f)
IC50 (MRC5; mrc5): 64 µM | IC50 (Plasmodium falciparum): 37.3 µM | IC50 (Trypanosoma cruzi; mrc5): 64 µM | solubility [3]: soluble | IC50 (Trypanosoma brucei): 64 µM | IC50 (Leishmania infantum; Leishmania infantum, 120 h): 64 µM

CCOC(=O)C1=NN(c2ccc(Cl)cc2)[C@@H]2N1c1ccccc1N1C(C(=O)OCC)=NN(c3ccc(Cl)cc3)[C@@]21C (racemic)
solubility [1]: soluble | selectivity ratio [6]: 128 | IC50 (MRC5; Homo sapiens, MRC5): 64 µM | IC50 (Plasmodium falciparum; [7]): 0.5 µM | IC50 (Trypanosoma cruzi; [8]): 64 µM | solubility [3]: soluble | IC50 (Trypanosoma brucei; Trypanosoma brucei, 96 h): 64 µM | IC50 (Leishmania infantum; Leishmania infantum, 120 h): 64 µM

C1=NN(c2ccccc2)C2C3N(C=NN3c3ccccc3)c3ccccc3N12 (configuration not stated)
IC50 (MRC5; Homo sapiens, MRC5): 64 µM | IC50 (Plasmodium falciparum; [7]): 29.8 µM | IC50 (Trypanosoma cruzi; [8]): 64 µM | solubility [3]: soluble | IC50 (Trypanosoma brucei; Trypanosoma brucei, 96 h): 64 µM | IC50 (Leishmania infantum; Leishmania infantum, 120 h): 64 µM
